The values that follow come from publication PMC9951859, “Investigation of α,ω-Disubstituted Polyamine-Cholic Acid Conjugates Identifies Hyodeoxycholic and Chenodeoxycholic Scaffolds as Non-Toxic, Potent Antimicrobials” (Antibiotics, 2023).

The subject of series [1] is Staphylococcus aureus ATCC 43300 (MRSA). Kind of series: Antimicrobial MIC assay (CO-ADD) against S. aureus MRSA. To be noted: Staphylococcus aureus, read-out: MIC S.a. In kind it is cell-based. From the text:
(§1) Antimicrobial evaluation against S. aureus (MRSA) (ATCC 43300), E. coli (ATCC 25922), K. pneumoniae (ATCC 700603), A. baumannii (ATCC 19606), C. albicans (ATCC 90028), and C. neoformans (ATCC 208821) was undertaken at the Community for Open Antimicrobial Drug Discovery at The University of Queensland (Australia) according to their standard protocols as reported previously.

The subject of series [2] is Escherichia coli ATCC 25922. As to the kind of experiment: Antimicrobial MIC assay (CO-ADD) against E. coli. In kind it is cell-based. As to conditions: Escherichia coli, ATCC25922, read-out: MIC E.c.
Text: as §1

Series [3] concerns Klebsiella pneumoniae ATCC 700603. As to the kind of experiment: Antimicrobial MIC assay (CO-ADD) against K. pneumoniae. In kind it is cell-based. As to conditions: Klebsiella pneumoniae, ATCC700603, read-out: MIC K.p.
Text: as §1

In series [4] the test system is Pseudomonas aeruginosa ATCC 27853. Kind of series: Antimicrobial MIC assay (CO-ADD) against P. aeruginosa. In kind it is cell-based. As to conditions: Pseudomonas aeruginosa, ATCC27853, read-out: MIC P.a.
Series [5] relates to Acinetobacter baumannii ATCC 19606. As to the kind of experiment: Antimicrobial MIC assay (CO-ADD) against A. baumannii. As to conditions: Acinetobacter baumannii, ATCC19606, read-out: MIC A.b. In kind it is cell-based.
Text: as §1

In series [6] the test system is Candida albicans ATCC 90028. As to the kind of experiment: Antimicrobial MIC assay (CO-ADD) against C. albicans. In kind it is cell-based. To be noted: mean (n = 2).
Text: as §1

Series [7] relates to Cryptococcus neoformans ATCC 208821. Kind of series: Antimicrobial MIC assay (CO-ADD) against C. neoformans. In kind it is cell-based.
Text: as §1

A short description of series [8]: Cytotoxicity assay on HEK293. In kind it is cell-based, human. As to conditions: human, HEK293 human embryonic kidney cells; concentration at 50% cytotoxicity on HEK293; mean (n = 2); top dose tested 32 μg/mL. On the procedure: Cytotoxicity assays were conducted using the protocols previously reported.
In series [9] the test system is human red blood cells. Kind of series: Hemolytic assay. In kind it is cell-based. As to conditions: concentration at 10% hemolytic activity on human red blood cells; mean (n = 2); top dose tested 32 μg/mL. The procedure:
Hemolytic assays were conducted using the protocols previously reported.

The mark [10] stands for this setting: Candida albicans, ATCC90028, read-out: MIC C.a., Candida albicans ATCC 90028.
Where [11] appears, read: Cryptococcus neoformans, ATCC208821, read-out: MIC C.n.

Each structure is given as a SMILES string. Converted amounts (≈) assume the structure as drawn. Read-outs that look alike come from different tables or passages of the source.

As usually defined, the MIC is the lowest concentration found to suppress growth. What is called IC50 is the concentration at which inhibition is half-maximal. Low readings indicate greater potency, high ones weaker potency.

For `C[C@H](CCC(=O)NCCCNCCCCCCNCCCNC(=O)CC[C@@H](C)[C@H]1CC[C@H]2[C@@H]3C[C@H](O)[C@@H]4C[C@H](O)CC[C@]4(C)[C@H]3CC[C@]12C)[C@H]1CC[C@H]2[C@@H]3C[C@H](O)[C@@H]4C[C@H](O)CC[C@]4(C)[C@H]3CC[C@]12C.O=C(O)C(F)(F)F.O=C(O)C(F)(F)F` [Compound 7b, N^1,N^6-Bis(3-((R)-4-((3R,5R,6S,8S,9S,10R,13R,14S,17R)-3,6-dihydroxy-10,13-dimethylhexadecahydro-1H-cyclopenta[a]phenanthren-17-yl)pentanamido)propyl)hexane-1,6-diaminium 2,2,2-trifluoroacetate], the MIC was at most 0.21 µM in series [1]; over 26 µM in series [2]; over 26 µM in series [3]; over 26 µM in series [4]; over 26 µM in series [5]; 13 µM in series [6] (setting [10]). Further, in series [7] (setting [11]), the MIC is at most 0.21 µM. This compound also registered an IC50 in [8] of over 26 µM. In series [9], the “Hemolysis (HC10)” value was over 26 µM.
For `C[C@H](CCC(=O)NCCCNCCCCCCCCCCCCNCCCNC(=O)CC[C@@H](C)[C@H]1CC[C@H]2[C@@H]3C[C@H](O)[C@@H]4C[C@H](O)CC[C@]4(C)[C@H]3CC[C@]12C)[C@H]1CC[C@H]2[C@@H]3C[C@H](O)[C@@H]4C[C@H](O)CC[C@]4(C)[C@H]3CC[C@]12C.O=C(O)C(F)(F)F.O=C(O)C(F)(F)F` [Compound 7f, N^1,N^12-Bis(3-((R)-4-((3R,5R,6S,8S,9S,10R,13R,14S,17R)-3,6-dihydroxy-10,13-dimethylhexadecahydro-1H-cyclopenta[a]phenanthren-17-yl)pentanamido)propyl)dodecane-1,12-diaminium 2,2,2-trifluoroacetate], the MIC in series [1] is at most 0.19 µM; in series [2], over 25 µM; in [3] it was over 25 µM; in series [4], over 25 µM; in series [5], over 25 µM; in [6] (setting [10]) it was at most 0.2 µM. Moreover, the MIC in series [7] (setting [11]) is at most 0.19 µM. In addition, in series [8], the midpoint of inhibition, the IC50, lay at 25 µM. The “Hemolysis (HC10)” value in series [9] is over 25 µM.
On to `C[C@H](CCC(=O)NCCCNCCCCNCCCNC(=O)CC[C@@H](C)[C@H]1CC[C@H]2[C@@H]3[C@@H](O)C[C@@H]4C[C@H](O)CC[C@]4(C)[C@H]3CC[C@]12C)[C@H]1CC[C@H]2[C@@H]3[C@@H](O)C[C@@H]4C[C@H](O)CC[C@]4(C)[C@H]3CC[C@]12C.O=C(O)C(F)(F)F.O=C(O)C(F)(F)F` [Compound 8a, N^1,N^4-Bis(3-((R)-4-((3R,5S,7S,8R,9S,10S,13R,14S,17R)-3,7-dihydroxy-10,13-dimethylhexadecahydro-1H-cyclopenta[a]phenanthren-17-yl)pentanamido)propyl)butane-1,4-diaminium 2,2,2-trifluoroacetate], for which the MIC in series [1] is 27 µM; in [2], over 27 µM; in [3], over 27 µM; in series [4] it was over 27 µM; in [5], over 27 µM; in [6] (setting [10]), 27 µM. In [7] (setting [11]), the MIC is over 27 µM. Further, in series [8], the IC50 is over 27 µM. Besides, in series [9], the “Hemolysis (HC10)” value was 7.3 µM.
Consider `C[C@H](CCC(=O)NCCCNCCCCCCNCCCNC(=O)CC[C@@H](C)[C@H]1CC[C@H]2[C@@H]3[C@@H](O)C[C@@H]4C[C@H](O)CC[C@]4(C)[C@H]3CC[C@]12C)[C@H]1CC[C@H]2[C@@H]3[C@@H](O)C[C@@H]4C[C@H](O)CC[C@]4(C)[C@H]3CC[C@]12C.O=C(O)C(F)(F)F.O=C(O)C(F)(F)F` [Compound 8b, N^1,N^6-Bis(3-((R)-4-((3R,5S,7S,8R,9S,10S,13R,14S,17R)-3,7-dihydroxy-10,13-dimethylhexadecahydro-1H-cyclopenta[a]phenanthren-17-yl)pentanamido)propyl)hexane-1,6-diaminium 2,2,2-trifluoroacetate], for which the MIC in [1] was 1.7 µM; in series [2], over 26 µM; in [3], over 26 µM; in series [4], over 26 µM; in series [5] it was over 26 µM; in series [6] (setting [10]), 27 µM. Besides, the MIC in series [7] (setting [11]) is over 27 µM. In series [8], the IC50 is over 27 µM. The “Hemolysis (HC10)” value in series [9] came to 11 µM.
As for `C[C@H](CCC(=O)NCCCNCCCCCCCNCCCNC(=O)CC[C@@H](C)[C@H]1CC[C@H]2[C@@H]3[C@@H](O)C[C@@H]4C[C@H](O)CC[C@]4(C)[C@H]3CC[C@]12C)[C@H]1CC[C@H]2[C@@H]3[C@@H](O)C[C@@H]4C[C@H](O)CC[C@]4(C)[C@H]3CC[C@]12C.O=C(O)C(F)(F)F.O=C(O)C(F)(F)F` [Compound 8c, N^1,N^7-Bis(3-((R)-4-((3R,5S,7S,8R,9S,10S,13R,14S,17R)-3,7-dihydroxy-10,13-dimethylhexadecahydro-1H-cyclopenta[a]phenanthren-17-yl)pentanamido)propyl)heptane-1,7-diaminium 2,2,2-trifluoroacetate], the minimal inhibitory concentration (MIC) in [1] is at most 0.21 µM; in series [2], over 26 µM; in series [3], over 26 µM; in series [4], over 26 µM; in series [5], over 26 µM; in series [6] (setting [10]), 13 µM. The MIC in [7] (setting [11]) worked out at 26 µM. In series [8], this compound displayed an IC50 of over 26 µM. In addition, the “Hemolysis (HC10)” value in [9] worked out at 11 µM.
Turning to `C[C@H](CCC(=O)NCCCNCCCCCCCCNCCCNC(=O)CC[C@@H](C)[C@H]1CC[C@H]2[C@@H]3[C@@H](O)C[C@@H]4C[C@H](O)CC[C@]4(C)[C@H]3CC[C@]12C)[C@H]1CC[C@H]2[C@@H]3[C@@H](O)C[C@@H]4C[C@H](O)CC[C@]4(C)[C@H]3CC[C@]12C.O=C(O)C(F)(F)F.O=C(O)C(F)(F)F` [Compound 8d, N^1,N^8-Bis(3-((R)-4-((3R,5S,7S,8R,9S,10S,13R,14S,17R)-3,7-dihydroxy-10,13-dimethylhexadecahydro-1H-cyclopenta[a]phenanthren-17-yl)pentanamido)propyl)octane-1,8-diaminium 2,2,2-trifluoroacetate], the MIC in series [1] is at most 0.2 µM; in series [2], over 26 µM; in [3], over 26 µM; in series [4], over 26 µM; in series [5], over 26 µM; in [6] (setting [10]), 26 µM. Besides, the MIC in series [7] (setting [11]) was 13 µM. Moreover, the IC50 in [8] was over 26 µM. Moreover, in [9], the “Hemolysis (HC10)” value stood at 5.6 µM.
`CC/C(=C(\c1ccccc1)c1ccc(OCCN(C)C)cc1)c1ccccc1` [Tamoxifen, reference compound] came in with an IC50 in series [8] of 24 µM.
In the case of `OC(Cn1cncn1)(Cn1cncn1)c1ccc(F)cc1F` [fluconazole, reference compound], the MIC is 0.4 µM (≈ 0.123 µg/mL) in series [6] (ATCC90028, Candida albicans ATCC 90028, read-out: MIC C.a.) and 26 µM (≈ 7.96 µg/mL) in series [7] (ATCC208821, Cryptococcus neoformans ATCC 208821, mean (n = 2), read-out: MIC C.n.).
Turning to `CN[C@H](CC(C)C)C(=O)N[C@H]1C(=O)N[C@@H](CC(N)=O)C(=O)N[C@H]2C(=O)N[C@H]3C(=O)N[C@H](C(=O)N[C@H](C(=O)O)c4cc(O)cc(O)c4-c4cc3ccc4O)[C@H](O)c3ccc(c(Cl)c3)Oc3cc2cc(c3O[C@@H]2O[C@H](CO)[C@@H](O)[C@H](O)[C@H]2O[C@H]2C[C@](C)(N)[C@H](O)[C@H](C)O2)Oc2ccc(cc2Cl)[C@H]1O` [vancomycin, reference compound], the minimum inhibitory concentration (MIC) in series [1] came to 0.7 µM (≈ 1.01 µg/mL).
